In patent EP4656640A1, “IRAK4 DEGRADER AND USE THEREOF” (Shanghai Qilu Pharmaceutical Research and Development …, priority 2023, dated 2024):
Where two headings read alike, the source gives them in different places.

Assays:
[1] = mice, 8 hours after last administration
Protocol: Experimental animals: SPF-grade male C57BL/6J mice aged 6-8 weeks.
Preparation of compound: 10% DMSO + 50% PEG400 + 40% sterile water for injection. The compound was dissolved in DMSO, followed by the addition of PEG400 and sterile water for injection, and the solution was adjusted to clarity with 6N hydrochloric acid.
Compound administration and IL-33 inflammatory induction: The mice were randomly grouped according to body weight and orally administered with the compound at final doses of 15 mg/kg, 50 mg/kg, and 150 mg/kg, twice daily. At 4 hours after the last administration of the compound, the mice were intraperitoneally injected with 1 µg/100 µL PBS of IL-33 for inflammatory induction.
Termination, sample collection, and data: Plasma, peritoneal lavage fluid, and spleen were collected for subsequent sample index detection.
The experiment was terminated 8 hours after the last administration. The mice were anesthetized, and cardiac blood was collected. The blood samples were anticoagulated with EDTA-K2, centrifuged at 3500 rpm for 15 minutes, and the upper plasma was collected.

[2] = molecular target: T1, IRAK4 (Homo sapiens, UniProt Q9NWZ3); type: cell-based; set-up: endogenous in cells; host or cells: OCI-LY3; conditions: read-out: OCI-LY3 DC50; OCI-LY3 cells
T1 sequence (Q9NWZ3 1-460): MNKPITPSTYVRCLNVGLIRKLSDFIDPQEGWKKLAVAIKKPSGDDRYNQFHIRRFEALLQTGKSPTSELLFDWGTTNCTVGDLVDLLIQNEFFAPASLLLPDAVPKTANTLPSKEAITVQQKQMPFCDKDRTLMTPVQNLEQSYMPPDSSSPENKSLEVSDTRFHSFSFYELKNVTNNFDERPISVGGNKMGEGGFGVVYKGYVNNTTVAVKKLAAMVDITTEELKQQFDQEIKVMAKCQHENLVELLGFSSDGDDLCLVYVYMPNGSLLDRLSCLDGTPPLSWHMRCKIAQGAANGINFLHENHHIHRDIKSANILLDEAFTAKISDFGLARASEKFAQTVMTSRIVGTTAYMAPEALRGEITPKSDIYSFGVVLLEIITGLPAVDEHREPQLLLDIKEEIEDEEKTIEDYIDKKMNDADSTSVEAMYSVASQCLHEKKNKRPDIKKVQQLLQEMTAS

[3] = Mouse pharmacokinetics, oral (Experiment 2); type: in vivo, C57BL/6 mice; conditions: mice, PO 100 mg/kg, free access to food, plasma
Protocol: Two male C57BL/6 mice were allowed free access to food and water. The dose for PO administration was 100 mg/kg, with an administration volume of 10 mL/kg.
After administration, blood samples (0.025 mL) were collected from the mice via venipuncture at 0.083, 0.25, 0.5, 1, 2, 4, 8, and 24 hours. The samples were placed in EDTA-K2 tubes and centrifuged at 2000 g for 5 minutes at 4°C. The plasma was separated and stored at -70°C.
• 1) 5 µL of plasma sample was added to 100 µL of acetonitrile for precipitation. After mixing, the mixture was centrifuged at 5800 rmp for 10 minutes. • 2) The processed supernatant solution was taken for LCMS/MS analysis to determine the concentration of the test compound.
• LC-MS/MS instrument: LCMS/MS-45 (Triple Quad 6500+) • Chromatographic column: Waters BEH C18 (2.1 × 50 mm, 1.7 µm) • Mobile phase: Solution A was H2O-0.025% FA-1 mM NH4OAc, and Solution B was MeOH-0.025% FA-1 mM NH4OAc. • Flow rate: 0.6 mL/min • Elution time: Gradient elution for 0-2.5 minutes.
The main pharmacokinetic parameters were calculated using WinNonlin 8.2. […] Table 7. Pharmacokinetic parameters of some compounds of the present disclosure administered orally to mice

SMILES	C8hr Plasma ([1]; PO 15 mpk twice daily)	C8hr Spleen ([1]; PO 15 mpk twice daily)	C8hr Plasma ([1]; PO 50 mpk twice daily)	C8hr Spleen ([1]; PO 50 mpk twice daily)	C8hr Plasma ([1]; PO 150 mpk twice daily)	C8hr Spleen ([1]; PO 150 mpk twice daily)	DC50 [2]	AUC(0-t) at 24 h [3]	Cmax [3]	Tmax [3]
Cn1c(=O)n(C2CCC(=O)NC2=O)c2cccc(C#CCCN3CCC4(CC3)CC(n3cc(NC(=O)c5cnn6ccc(N7C[C@H]8C[C@@H]7CO8)nc56)c(C(F)F)n3)C4)c21 (stereo partly shown) [Example 22]	54 ng/mL	369 ng/mL	517 ng/mL	6135 ng/mL	1392 ng/mL	16257 ng/mL	1.3 nM			
Cn1c(=O)n(C2CCC(=O)NC2=O)c2cccc(C#CCOC34CCC(CN5CCC6(CC5)CC(n5cc(NC(=O)c7cnn8ccc(N9C[C@H]%10C[C@@H]9CO%10)nc78)c(C(F)F)n5)C6)(CC3)CC4)c21 (stereo partly shown) [Example 52]								40100 ng·h/mL	2200 ng/mL	8 h
